Measured values as given in patent US9415084B2, “Treatment of leaky or damaged tight junctions and enhancing extracellular matrix” (Arch Biosurgery, Inc., priority 2007, dated 2016).
Where “and” joins values, the source holds several entries; their conditions need not be identical. Equal values may be shown once.

Columns and labels:
liver [1] = test: Hemostasis in liver 4 mm punch biopsy; format: in vivo; settings: rats allowed to survive for up to 6 months after 3% treatment
Description: In another group of anesthetized adult rats, the liver was exposed and a 4 mm punch biopsy from the ventral aspect through the liver to the dorsal surface of the left liver lobe. The resulting core was removed from the liver and one of three treatments was applied. In one treatment, 200 μl of a 3% NHS-1 solution was applied to the site of injury. In one control saline was applied to the site of injury. In a second control, the injury surface was cauterized. The superficial material was then wiped clear of the injury site. […]
In the third experiment using adult rats (n=45) 4 mm holes were punched through the left lateral lobe and then the area was treated with 3% NHS-1, saline or heat cautery to bring about hemostasis (FIG. 3b). […] In the heat cautery control group (n=15) cessation of bleeding took more than 60 seconds, inclusive of applying heat to cauterize the inside surface of the punch. […] Using ANOVA there was a significant difference between the 3% NHS-1 treatment and the controls (p<0.0001).

femoral artery = test: Hemostasis in a high pressure femoral artery wound; format: in vivo, rat; settings: two cases, data not shown
Description: Rats were placed on their backs and the hind limb was extended to expose the medial aspect of the thigh (FIG. 4b). The skin was removed and the overlying muscles were cut to expose the femoral artery and sciatic nerve. The femoral artery was cut to produce a high pressure bleeder. With a 27 gauge needle, 200 μl of 1% RADA16-I (SEQ ID NO: 60) (NHS-1) solution was applied over the site of injury. In two cases powder was applied to the injury site which also worked. (Data not shown and was not included in the analysis). Controls were treated with a combination of saline and pressure with a […]. All animals were sacrificed four hours after the experiment. The femoral artery of 14 adult rats was surgically exposed, transected and then treated with 200 μl of 1% solution of NHS-1 or iced saline and packing. The treated cases (n=10) took about 10 seconds to achieve hemostasis (FIG. 3a). The controls (n=4) continued to bleed more than 6 minutes. The difference in times to achieve complete hemostasis was highly significant (Student t test p<0.0001).

brain = settings: rat, in vivo
Description: (§1) In the brain and liver of anesthetized adult rats 1% or 2% of NHS-1 was injected immediately after making a cut and the treatment site was sampled. Samples were fixed in a mixture of 2% para-formaldehyde and 2.5% glutaraldehyde in 0.1M PB for 4 hours. The samples were washed in 0.1M PB buffer 10 min×3 at 4° C. and embedded in 2% agar. Agar blocks were post fixed in 1% osmium tetroxide for 2 hrs at 4° C. and then washed in buffer for 10 min×3 at 4° C. The sample blocks were dehydrated in ethanol infiltrated and embedded in pure epon with Lynx EM tissue processor. Ultra-thin 70 nm sections were cut (Reichert-Jung ultra cut) and collected on #200 mesh grids. Sections and grids were stained with uranyl acetate and lead citrate and examined under Philip EM208S transmission electron microscope.

liver [2] = test: Hemostasis in liver transverse cut severing a branch of the portal vein; format: in vivo; settings: rat liver transverse cut
Description: Rats were anesthetized and placed on their back and the abdomen was opened exposing the liver (FIG. 4c). The left lobe of the liver was cut using a scalpel in the rostral to caudal direction separating the two halves of the lobe in the sagittal cut. With a 27 gauge needle, 100 μl of 1% or 2%, of RADA16-I (SEQ ID NO: 60) (NHS-1), RADA-12 (NHS-2), or EAK-16 (TM-3) solution was applied to the site of injury. Livers of the controls were treated with saline or cauterized. Cauterization was performed using a thermal cautery device and was applied to entire surface of the injury. In another group of adult rats the same procedure was followed for the liver, which was cut transversely (FIG. 4d). With a 27 gauge needle, 400 μl of 1%, 2%, 3%, or 4% of NHS-1, or TM-3 solution was applied to the site of injury.
In the second experiment a major branch of the portal vein was severed while making a transverse cut in the left lobe to test NHS-1 in a high flow rate environment. Four concentrations of NHS-1 were tested (n=12) along with (n=4) control animals. 400 μl of 4% concentration NHS-1 was applied and bleeding stopped in 11 seconds. The test was successfully duplicated with 400 μl of both 3% and 2% NHS-1 solution; bleeding ceased in 10 and 10.3 seconds, respectively (FIG. 3d). When 400 μl of 1% NHS-1 was applied, bleeding continued for more than 60 seconds (FIG. 3d). The controls, however, bled for over 6 minutes. […] A significant difference was found between the NHS-1 treated and control groups using ANOVA.
The increased blood flow from the portal vein after making a transverse liver cut allowed the performance of another dose response experiment where various concentrations of NHS-1 (1% to 4%) and TM-3 (1% to 3%) could be compared with controls (FIG. 3d). All concentrations of NHS-1 were effective; however the higher blood pressure and flow rate after the transverse liver cut required a concentration of 2% or higher of NHS-1 to stop bleeding in less than 15 seconds.

spinal cord = test: Hemostasis in a spinal cord injury (T2 hemisection); format: in vivo, rat; settings: adult rats, 20 μl of 1% solution
Description: Under an operating microscope, the second thoracic spinal cord segment (T2) was identified before performing a dorsal laminectomy in anesthetized adult rats. After opening the dura mater, a right hemisection was performed using a ceramic knife. Immediately after the cord hemisection 20 μl of 1% solution of RADA16-I (SEQ ID NO: 60) (NHS-1) was applied to the area of the cut for bleeding control. The controls received a saline treatment. The animals were allowed to survive for up to 8 weeks as part of another experiment. The spinal environment and the brain environment were investigated for similarities or differences. Secondary damage caused by surgery can be reduced by quickly bringing bleeding under control. After laminectomy and removal of the dura, the spinal cord was hemisected at T2, from the dorsal to ventral aspect and treated (N=5) with 20 μl of 1% NHS-1. […] In the saline controls (n=5) it took on average 163 seconds to stop bleeding (FIG. 3a).

brain, lung, or liver = test: Examination of treated animals for thrombi; format: in vivo
liver [3] = settings: rat, in vivo
Description: as §1
Still looking for mechanism clues as well as further understanding of the relationship of the NHS-1 blood/tissue interface in both the brain and liver, the treated tissues were examined under the transmission electron microscope (TEM), to determine how the red blood cells (RBCs), platelets, tissue and the ECM interact with the material.
A 1% NHS-1 solution was applied to a liver wound and immediately harvested the tissue.

n-RADARADARADARADA-c [NHS-1]
effect on the tissues in surviving animals (liver [1]): no detrimental effect on the tissues | hemostasis with powder applied to the injury site (femoral artery): also worked | lysing of RBCs at the edges of the assembled material (brain): no evidence of lysing | platelet aggregation in the assembled material (brain): no evidence of platelet aggregation | hemostasis after removing the excess assembled material (liver [2]; 2%, 3% and 4% concentration): complete hemostasis was maintained | time to hemostasis (liver [2]; 400 μl of 2% solution): 10.3 s and 10.3 ± 0.5 s | time to hemostasis (liver [2]; 400 μl of 3% solution): 10 s and 10.0 ± 1.0 s | time to hemostasis (liver [2]; 400 μl of 4% solution): 11 s and 11.0 ± 1.0 s | concentration required for complete hemostasis in less than 15 seconds (liver [2]; higher blood pressure/flow rate): ≥ 2% | hemostatic effectiveness over the concentrations tested (liver [2]; NHS-1 1% to 4%, TM-3 1% to 3%): effective | time to hemostasis (spinal cord): 7.6 s | thrombi in the brain, lung, or liver (brain, lung, or liver): no evidence of thrombi | lysing of RBCs at the interface (liver [3]): no evidence of lysing | platelet aggregation at the blood/NHS-1 interface (liver [3]): no evidence of platelet aggregation
